In ChEMBL document CHEMBL1201862, “PubChem BioAssay data set” (2004):
Where “and” joins values, the source holds several entries; their conditions need not be identical. Equal entries are not always repeated. Calls of active or inactive are those of the source.

Legend:
cells = assay type: functional, cell-based
[1] = biological target: FAD-linked sulfhydryl oxidase ALR (Homo sapiens, UniProt P55789); experiment: ALR-catalysed DTT oxidation blockers – biochemical, H2O2 detection, luminescence, cherry-pick, dose response (AID 493248)
[2] = biological target: T1, Nuclear receptor subfamily 0 group B member 1 (Homo sapiens, UniProt P51843); assay type: functional, cell-based;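 further: HEK293T cells transfected with SF-1 and DAX-1 plus StAR promoter luciferase reporter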
T1 sequence (P51843 whole entry): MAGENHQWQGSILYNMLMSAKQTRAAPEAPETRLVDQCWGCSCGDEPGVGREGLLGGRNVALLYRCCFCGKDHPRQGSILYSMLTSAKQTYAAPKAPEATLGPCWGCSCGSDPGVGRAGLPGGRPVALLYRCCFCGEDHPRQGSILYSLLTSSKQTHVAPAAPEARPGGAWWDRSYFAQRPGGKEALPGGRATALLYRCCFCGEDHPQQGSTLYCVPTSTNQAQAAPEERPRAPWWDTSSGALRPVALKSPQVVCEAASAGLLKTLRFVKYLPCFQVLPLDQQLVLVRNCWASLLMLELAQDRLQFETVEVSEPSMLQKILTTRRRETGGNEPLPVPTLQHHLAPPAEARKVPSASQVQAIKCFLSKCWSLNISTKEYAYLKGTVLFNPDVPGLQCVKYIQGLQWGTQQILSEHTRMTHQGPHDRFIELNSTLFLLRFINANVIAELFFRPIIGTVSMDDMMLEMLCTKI

Cytochrome P450 3A4 = Cytochrome P450 3A4 (Homo sapiens, UniProt P08684);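 further: CYP3A4 tested as one member of a cytochrome P450 panel screen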
Vero = experiment: cells; assay type: functional; settings: Chlorocebus sabaeus
[3] = biological target: T2, Short transient receptor potential channel 4 (Mus musculus, UniProt Q9QUQ5); experiment: calcium entry via TRPC4 opening agents – cell-based, HEK293 TRPC4/mu-opioid, Fluo-4 calcium, dose response (AID 434937); assay type: functional
T2 sequence (Q9QUQ5 whole entry): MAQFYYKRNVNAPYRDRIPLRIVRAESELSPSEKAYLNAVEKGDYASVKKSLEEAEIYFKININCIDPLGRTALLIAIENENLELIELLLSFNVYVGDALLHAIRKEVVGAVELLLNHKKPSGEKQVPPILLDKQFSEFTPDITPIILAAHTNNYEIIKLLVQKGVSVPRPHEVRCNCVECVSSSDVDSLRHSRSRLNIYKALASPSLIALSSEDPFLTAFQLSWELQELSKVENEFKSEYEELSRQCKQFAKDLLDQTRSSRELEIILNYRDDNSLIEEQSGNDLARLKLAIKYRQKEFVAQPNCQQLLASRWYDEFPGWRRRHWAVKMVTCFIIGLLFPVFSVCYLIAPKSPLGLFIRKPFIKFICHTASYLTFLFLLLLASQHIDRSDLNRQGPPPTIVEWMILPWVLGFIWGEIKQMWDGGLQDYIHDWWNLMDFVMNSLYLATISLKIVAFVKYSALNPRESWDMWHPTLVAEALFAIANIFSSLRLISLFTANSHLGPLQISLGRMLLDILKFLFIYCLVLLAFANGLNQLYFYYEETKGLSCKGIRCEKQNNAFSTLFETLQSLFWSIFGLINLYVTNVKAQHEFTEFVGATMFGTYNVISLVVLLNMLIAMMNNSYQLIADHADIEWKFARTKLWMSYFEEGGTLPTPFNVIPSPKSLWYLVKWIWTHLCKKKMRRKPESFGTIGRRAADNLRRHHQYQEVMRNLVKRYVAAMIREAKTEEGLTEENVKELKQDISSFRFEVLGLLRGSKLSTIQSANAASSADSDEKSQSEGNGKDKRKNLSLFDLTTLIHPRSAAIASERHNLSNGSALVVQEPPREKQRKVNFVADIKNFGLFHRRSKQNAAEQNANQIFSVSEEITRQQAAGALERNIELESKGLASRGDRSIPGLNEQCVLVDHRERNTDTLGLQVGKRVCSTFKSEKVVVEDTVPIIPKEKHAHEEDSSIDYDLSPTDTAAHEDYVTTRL

Cytochrome P450 2C9 = Cytochrome P450 2C9 (Homo sapiens, UniProt P11712)
[4] = Luminescence Cell-Based Dose Confirmation HTS to Identify Inhibitors of Platelet Dense Granule Release. [Related pubchem assays: 1663 (Primary HTS), 1678 (Summary of Project)]; assay type: functional
[5] = biological target: Luciferin 4-monooxygenase (Photinus pyralis, UniProt P08659); experiment: inhibition of purified Photinus pyralis luciferase – biochemical, luminescence, dose response (AID 1891)
Cytochrome P450 2C19 = Cytochrome P450 2C19 (Homo sapiens, UniProt P33261); experiment: Cytochrome panel assay with activity outcomes. Panel member name: p450-cyp2c19 Compounds with AC50 equal or less than 10 uM are considered active; assay type: functional; settings: read-out: AC50
[6] = biological target: T3, DNA repair and recombination protein RAD54-like (Homo sapiens, UniProt Q92698); experiment: RAD54 Holliday junction migration blockers – biochemical, fluorescence, cherry-picked samples, dose series, confirmation (AID 651657); assay type: functional
T3 sequence (Q92698 whole entry): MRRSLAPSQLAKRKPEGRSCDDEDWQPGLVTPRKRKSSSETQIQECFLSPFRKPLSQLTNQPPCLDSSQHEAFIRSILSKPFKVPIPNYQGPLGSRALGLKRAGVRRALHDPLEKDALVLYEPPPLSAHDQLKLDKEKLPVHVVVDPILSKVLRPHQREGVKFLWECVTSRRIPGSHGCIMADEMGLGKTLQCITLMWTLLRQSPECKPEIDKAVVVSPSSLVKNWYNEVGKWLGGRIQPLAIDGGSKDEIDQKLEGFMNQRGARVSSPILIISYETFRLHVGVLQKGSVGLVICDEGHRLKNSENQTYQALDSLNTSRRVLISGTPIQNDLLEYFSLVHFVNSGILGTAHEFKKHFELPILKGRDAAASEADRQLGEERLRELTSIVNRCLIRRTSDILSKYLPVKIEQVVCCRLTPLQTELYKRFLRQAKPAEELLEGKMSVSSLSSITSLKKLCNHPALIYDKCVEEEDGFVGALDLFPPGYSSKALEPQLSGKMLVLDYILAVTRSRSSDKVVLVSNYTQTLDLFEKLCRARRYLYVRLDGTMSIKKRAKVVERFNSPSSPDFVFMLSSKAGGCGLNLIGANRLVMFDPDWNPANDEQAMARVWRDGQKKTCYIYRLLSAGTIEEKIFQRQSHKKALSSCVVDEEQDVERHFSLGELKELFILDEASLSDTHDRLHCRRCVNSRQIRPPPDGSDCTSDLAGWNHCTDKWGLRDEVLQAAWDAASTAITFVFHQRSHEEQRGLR

[7] = off-target signal loss in HeLa-CEM21 co-culture – HeLa F-luc CTL cells, cherry-picked, counter-screen for HIV-1 Env fusion inhibitor project, dose response (AID 652040); assay type: functional, cell-based;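 further: potency for signal decrease marking cytotoxic or nonspecific inhibition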

Cytochrome P450 2C9, sequence (P11712 whole entry): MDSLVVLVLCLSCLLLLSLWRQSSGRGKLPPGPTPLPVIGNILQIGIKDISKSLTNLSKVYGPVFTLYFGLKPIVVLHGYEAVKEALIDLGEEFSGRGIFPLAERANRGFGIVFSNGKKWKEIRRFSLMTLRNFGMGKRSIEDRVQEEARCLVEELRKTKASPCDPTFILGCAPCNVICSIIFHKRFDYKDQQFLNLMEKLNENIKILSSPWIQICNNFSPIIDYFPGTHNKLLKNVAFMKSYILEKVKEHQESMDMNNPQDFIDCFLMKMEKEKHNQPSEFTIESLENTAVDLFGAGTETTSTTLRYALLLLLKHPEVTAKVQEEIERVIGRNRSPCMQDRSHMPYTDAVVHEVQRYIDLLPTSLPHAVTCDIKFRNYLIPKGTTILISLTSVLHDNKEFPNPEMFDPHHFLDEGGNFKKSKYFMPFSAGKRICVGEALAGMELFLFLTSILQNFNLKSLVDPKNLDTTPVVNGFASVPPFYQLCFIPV
Cytochrome P450 3A4, sequence (P08684 whole entry): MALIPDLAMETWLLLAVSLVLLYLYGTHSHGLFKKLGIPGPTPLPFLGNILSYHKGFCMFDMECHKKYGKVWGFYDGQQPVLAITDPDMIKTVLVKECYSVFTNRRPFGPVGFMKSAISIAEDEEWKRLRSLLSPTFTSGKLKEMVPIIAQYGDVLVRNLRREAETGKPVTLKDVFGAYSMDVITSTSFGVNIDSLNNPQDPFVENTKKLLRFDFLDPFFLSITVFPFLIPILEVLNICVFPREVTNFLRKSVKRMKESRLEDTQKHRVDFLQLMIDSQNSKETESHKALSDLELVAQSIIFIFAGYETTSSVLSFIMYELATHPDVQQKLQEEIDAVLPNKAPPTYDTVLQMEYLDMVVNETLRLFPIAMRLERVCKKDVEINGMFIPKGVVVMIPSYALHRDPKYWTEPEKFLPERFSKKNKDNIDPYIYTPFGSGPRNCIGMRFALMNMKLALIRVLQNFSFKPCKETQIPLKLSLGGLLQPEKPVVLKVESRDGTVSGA
Luciferin 4-monooxygenase, sequence (P08659 whole entry): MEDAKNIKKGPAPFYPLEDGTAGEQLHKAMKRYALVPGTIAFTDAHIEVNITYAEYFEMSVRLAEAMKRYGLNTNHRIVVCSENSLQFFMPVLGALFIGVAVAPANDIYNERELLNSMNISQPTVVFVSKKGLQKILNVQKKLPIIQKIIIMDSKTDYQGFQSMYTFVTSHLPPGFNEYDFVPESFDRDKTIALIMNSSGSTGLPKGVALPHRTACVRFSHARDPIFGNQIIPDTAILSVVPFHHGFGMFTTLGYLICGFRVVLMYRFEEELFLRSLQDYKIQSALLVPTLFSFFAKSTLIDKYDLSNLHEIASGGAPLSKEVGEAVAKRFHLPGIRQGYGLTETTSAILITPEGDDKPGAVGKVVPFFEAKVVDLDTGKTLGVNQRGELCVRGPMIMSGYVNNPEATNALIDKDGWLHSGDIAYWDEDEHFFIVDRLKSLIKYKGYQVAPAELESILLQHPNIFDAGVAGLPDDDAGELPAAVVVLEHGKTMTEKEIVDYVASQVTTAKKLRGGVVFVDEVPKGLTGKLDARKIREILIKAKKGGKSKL
Cytochrome P450 2C19, sequence (P33261 whole entry): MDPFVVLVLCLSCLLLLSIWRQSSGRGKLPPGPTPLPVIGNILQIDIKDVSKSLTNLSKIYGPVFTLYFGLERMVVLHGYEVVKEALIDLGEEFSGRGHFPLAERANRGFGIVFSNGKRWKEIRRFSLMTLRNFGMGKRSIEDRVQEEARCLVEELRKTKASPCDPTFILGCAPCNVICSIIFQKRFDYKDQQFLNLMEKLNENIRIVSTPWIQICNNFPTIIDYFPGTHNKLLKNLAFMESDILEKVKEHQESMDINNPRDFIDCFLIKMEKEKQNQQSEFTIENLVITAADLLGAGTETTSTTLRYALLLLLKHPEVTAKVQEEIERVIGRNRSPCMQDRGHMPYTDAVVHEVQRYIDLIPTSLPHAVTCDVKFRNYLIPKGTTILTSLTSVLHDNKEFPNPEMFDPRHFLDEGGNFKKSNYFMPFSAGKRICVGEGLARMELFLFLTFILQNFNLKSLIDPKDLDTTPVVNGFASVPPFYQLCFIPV
FAD-linked sulfhydryl oxidase ALR, sequence (P55789 whole entry): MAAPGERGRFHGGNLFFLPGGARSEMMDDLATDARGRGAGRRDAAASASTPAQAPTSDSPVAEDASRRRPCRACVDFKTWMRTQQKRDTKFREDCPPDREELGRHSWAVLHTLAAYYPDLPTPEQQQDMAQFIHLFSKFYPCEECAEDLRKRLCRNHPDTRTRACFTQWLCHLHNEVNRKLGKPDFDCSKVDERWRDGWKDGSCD

Structure (SMILES): COc1ccc(/C=N/Nc2nc3ccccc3o2)cc1O
- IC50 (cells): > 67.5 µM (inactive)
- AC50 [1]: 2.59 µM (active)
- IC50 [2]: > 67.5 µM (inactive)

Structure (SMILES): O=C(NCc1ccccc1)c1ccc2c(c1)C(=O)N(CC1CCCO1)C2=O (stereo not drawn)
- AC50 (Cytochrome P450 3A4): inconclusive

Structure (SMILES): O=C(COc1ccc(Cl)cc1Cl)NC(=O)NC1CCCC1
- IC50 (cells): > 67.5 µM (inactive)
- IC50 [2]: > 67.5 µM (inactive)

Structure (SMILES): NCCSc1c(-c2ccc(Cl)cc2)[nH]c2ccccc12
- CC50 (Vero): > 25 µM (active)
- EC50 [3]: 4.73 µM (active)

Structure (SMILES): COc1ccc(S(N)(=O)=O)cc1C(=O)NCCCN1CCN(c2cccc(Cl)c2)CC1.CS(=O)(=O)O
- AC50 (Cytochrome P450 2C9): 100 nM (inconclusive)
- EC50 [4]: > 56.1 µM (not active)
- EC50 [5]: > 112 µM (not active)
- AC50 (Cytochrome P450 2C19): 14.1 µM (inconclusive)
- AC50 (Cytochrome P450 3A4): inconclusive

Structure (SMILES): CC(=O)O[C@]1(C(C)=O)CC[C@@H]2[C@@H]3C=C(Cl)C4=CC(=O)[C@H]5C[C@@H]5[C@]4(C)[C@H]3CC[C@]21C
- AC50 (Cytochrome P450 2C9): 15.8 µM (inconclusive) and 31.6 µM (inconclusive)
- AC50 (Cytochrome P450 3A4): inconclusive

Structure (SMILES): Cc1ccc(NC(=O)CCN2CCC(Cc3ccccc3)CC2)cc1
- EC50 [3]: 0.0667 µM (active)

Structure (SMILES): c1ccc2c3nc[nH]c(N4CCN(C5CCCCC5)CC4)c-3nc2c1
- AC50 [6]: 40.5 µM (active)

Structure (SMILES): CC1CCCC(C)N1CCCNC(=O)c1nn(C)c2c1CSc1ccccc1-2 (stereo not drawn)
- AC50 [7]: > 70 µM (inactive)
